Source: US10669283B2, “Compound and pharmacologically acceptable salt thereof” (MEIJI SEIKA PHARMA CO., LTD., priority 2016, dated 2020)
pIC50: −log10 of the molar value.

Legend:
PDE4 = PDE4 inhibition, scintillation proximity assay (SPA); type: biochemical; settings: scintillation proximity assay; class symbols; read-out: PDE4 Inhibitory Activity
Procedure, shortened: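 Compound pre-diluted 1:10 in 50 mM Tris-HCl pH 7.4, 8.3 mM MgCl2, 1.7 mM EGTA, 3 mg/mL BSA, then incubated with PDE4 and [2,8-3H]-cAMP for 120 min at room temperature. Product captured on ZnSO4-containing YSi-SPA beads for 15 min; radioactivity counted against no-enzyme blank and DMSO control.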

[1] = Hepatic metabolic stability (rat liver microsome method); type: in vitro ADME; settings: rat liver microsomes 0.5 mg/mL, test substance 1 μM, NADPH 1 mM, 37° C., 30 minutes
Procedure, shortened: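 Test compound (1 μM) preincubated with rat liver microsomes (0.5 mg/mL) in 100 mM potassium phosphate pH 7.4 at 37° C; NADPH (1 mM) started reaction, acetonitrile stopped it at 0 and 30 min. LC-MS quantitation; % remaining = 30-min/0-min ×100, graded A ≥75%, B 60–<75%, C 45–<60%, D <45%.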

SMILES | pIC50 (PDE4) | Residual ratio (% remaining for 30-minute reaction) [1]
COCCNC(=O)c1ccc(-c2nccs2)c2oc(N3CC4CC(C3)N4)nc12 [Example 353, 2-(3,6-diazabicyclo [3.1.1]heptan-3-yl)-N-(2-methoxyethyl)-7-(thiazol-2-yl) benzo[d] oxazole-4-carboxamide] | > 7.00 | A (a % remaining rate of 75% or more)
NC(=O)c1ccc(-c2nccs2)c2oc(N3CC4CC(C3)N4)nc12 [Example 354, 2-(3,6-diazabicyclo [3.1.1]heptan-3-yl)-7-(thiazol-2-yl)benzo[d] oxazole-4-carboxamide] | > 7.00 | A (a % remaining rate of 75% or more)
O=C(NCCO)c1ccc(-c2nccs2)c2oc(N3CC4CC(C3)N4)nc12 [Example 355, 2-(3,6-diazabicyclo [3.1.1]heptan-3-yl)-N-(2-hydroxyethyl)-7-(thiazol-2-yl) benzo[d] oxazole-4-carboxamide] | > 7.00 | A (a % remaining rate of 75% or more)
CN(CCO)C(=O)c1ccc(-c2nccs2)c2oc(N3CC4CC(C3)N4)nc12 [Example 356, 2-(3,6-diazabicyclo [3.1.1]heptan-3-yl)-N-(2-hydroxyethyl)-N-methyl-7-(thiazol-2-yl)benzo[d] oxazole-4-carboxamide] | 6.00 to 7.00 | A (a % remaining rate of 75% or more)
O=C(NC1CC1)c1ccc(-c2nccs2)c2oc(N3CC4CC(C3)N4)nc12 [Example 357, 2-(3,6-diazabicyclo [3.1.1]heptan-3-yl)-N-cyclopropyl-7-(thiazol-2-yl) benzo[d]oxazole-4-carboxamide] | > 7.00 | A (a % remaining rate of 75% or more)
CCNC(=O)c1ccc(-c2nccs2)c2oc(N3CC4CC(C3)N4)nc12 [Example 358, 2-(3,6-diazabicyclo [3.1.1]heptan-3-yl)-N-ethyl-7-(thiazol-2-yl) benzo[d]oxazole-4-carboxamide] | > 7.00 | A (a % remaining rate of 75% or more)
O=C(c1ccc(-c2nccs2)c2oc(N3CC4CC(C3)N4)nc12)N1CCOCC1 [Example 359, (2-(3,6-diazabicyclo [3.1.1]heptan-3-yl)-7-(thiazol-2-yl)benzo[d]oxazol-4-yl) (morpholino) methanone] | 6.00 to 7.00 | A (a % remaining rate of 75% or more)
O=C(c1ccc(-c2nccs2)c2oc(N3CC4CC(C3)N4)nc12)N1CCCC1 [Example 360, (2-(3,6-diazabicyclo [3.1.1]heptan-3-yl)-7-(thiazol-2-yl)benzo[d]oxazole-4-yl)(pyrrolidin-1-yl)methanone] | 6.00 to 7.00 | A (a % remaining rate of 75% or more)
CC(C)(O)C(F)(F)Oc1ccc(-c2ccc(Cl)cn2)c2oc(N3CC4CC(C3)N4)nc12 [Example 363, 1-((2-(3,6-diazabicyclo [3.1.1]heptan-3-yl)-7-(5-chloropyridin-2-yl)benzo[d]oxazol-4-yl)oxy)-1,1-difluoro-2-methyl-propan-2-ol] | > 7.00 | A (a % remaining rate of 75% or more)
c1csc(-c2ccc(N3CCOCC3)c3nc(N4CC5CC(C4)N5)oc23)n1 [Example 369, 2-(3,6-diazabicyclo[3.1.1]heptan-3-yl)-4-morpholino-7-(thiazol-2-yl) benzo[d]oxazole] | > 7.00 | B (60% or more and less than 75%)
OCC(O)C(F)(F)Oc1ccc(-c2nccs2)c2oc(N3CC4CC(C3)N4)nc12 (stereo not shown) [Example 370, 3-((2-(3,6-diazabicyclo[3.1.1]heptan-3-yl)-7-(thiazol-2-yl)benzo[d]oxazol-4-yl)oxy)-3,3-difluoropropane-1,2-diol] | > 7.00 | A (a % remaining rate of 75% or more)
